From PubChem BioAssay (NCI)
“And” between values parts separate entries of the source, which are not always exact repeats. Identical values can stand only once.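 Compound exposure: 48 hours, 5 concentrations, 96-well plates. GI50 is the concentration that inhibits growth by half. TGI: total growth inhibition.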

How the values were obtained:
Assay in all cases: inhibition of tumour cell growth, NCI panel, 48 h
NCI-H226 lung = test system: NCI-H226 lung
MDA-MB-435 = test system: MDA-MB-435
NCI-H460 lung = test system: NCI-H460 lung
OVCAR-5 ovarian = test system: OVCAR-5 ovarian
OVCAR-8 ovarian = test system: OVCAR-8 ovarian
MALME-3M melanoma = test system: MALME-3M melanoma
NCI-H23 lung = test system: NCI-H23 lung
SK-MEL-2 melanoma = test system: SK-MEL-2 melanoma

SMILES | GI50 (NCI-H226 lung) | TGI (NCI-H226 lung) | GI50 (MDA-MB-435) | TGI (MDA-MB-435) | GI50 (NCI-H460 lung) | TGI (NCI-H460 lung) | GI50 (OVCAR-5 ovarian) | TGI (OVCAR-5 ovarian) | GI50 (OVCAR-8 ovarian) | TGI (OVCAR-8 ovarian) | GI50 (MALME-3M melanoma) | TGI (MALME-3M melanoma) | GI50 (NCI-H23 lung) | TGI (NCI-H23 lung) | GI50 (SK-MEL-2 melanoma) | TGI (SK-MEL-2 melanoma)
NC1=Nc2cc(OCCCCN3Cc4ccccc4C3)c(OCC3CC3)cc2C12CCCC2 | 1.32 µM | 3.48 µM | 1.59 µM | 2.99 µM | 1.67 µM | 3.21 µM | 2.3 µM | 6.4 µM | 1.8 µM | 4.02 µM | 1.63 µM | 3.12 µM | 2.15 µM | 5.36 µM | 1.84 µM | 3.49 µM
N=C(N)c1ccc(-c2ccc(-c3cccs3)s2)cc1F | 1.74 µM | 3.86 µM | 1.13 µM | 2.37 µM | 0.0436 µM | 1.05 µM | 1.02 µM | 2.36 µM | 2.04 µM | 5.19 µM | 2.28 µM | 4.48 µM | 1.63 µM | 3.27 µM | 1.94 µM | 3.65 µM
CC1(C)CC[C@]2(C(=O)O)CC[C@]3(C)C(=CC[C@@H]4[C@@]5(C)C/C(=C/c6cccnc6)[C@H](O)C(C)(C)[C@@H]5CC[C@]43C)[C@@H]2C1 | 8.63 µM | 63 µM | 15.2 µM | > 100 µM | 4.14 µM | 26.4 µM | 11.2 µM | 44 µM | 9.47 µM | > 100 µM | 13.4 µM | 36.2 µM | 9.64 µM | > 100 µM | 17 µM | 66.1 µM
Cc1n[nH]c(C)c1-c1c(C)n[nH]c1C | 1.77 µM | 3.97 µM | 1.93 µM | 4.82 µM | 1.82 µM | 3.85 µM | 2.13 µM | 4.85 µM | 2.09 µM | 9.79 µM | 1.7 µM | 4.05 µM | 1.74 µM | 3.47 µM | 2.32 µM | 5.51 µM
COC(=O)[C@@H](C)C[C@H](Cc1ccccc1)NC(=O)c1nc([C@@H](C[C@H](C(C)C)N(C)C(=O)[C@@H](NC(=O)[C@H]2CC(=O)CCN2C)C(C)C)OC(C)=O)sc1C(C)C | 0.415 µM | 2.95 µM | 0.0169 µM | 0.0921 µM | 0.27 µM | > 5.85 µM | 0.617 µM | > 16.7 µM | 0.48 µM | > 16.7 µM | 0.119 µM | > 16.7 µM | 0.456 µM | > 16.7 µM | 0.104 µM | > 16.7 µM
N#CSc1c[nH]c2cccc(/C=C/C(=O)/C=C(O)/C=C/c3cccc4[nH]cc(SC#N)c34)c12 | 0.607 µM | 1.34 µM | 0.542 µM | 1.42 µM | 0.228 µM | 0.899 µM | 0.714 µM | 2.04 µM | 0.369 µM | > 17.5 µM | 0.52 µM | 1.07 µM | 0.426 µM | 1.89 µM | 0.829 µM | 1.93 µM
N/C(=N\O)c1cn(C2OC(CO)C(O)C2O)c2ncnc(N)c12 (stereo unspecified) | 0.446 µM | 49.6 µM | 0.0758 µM | 0.263 µM | 0.138 µM | 0.987 µM | 0.507 µM | > 40.5 µM | 0.186 µM | 2.59 µM | 0.0578 µM | 0.243 µM | 0.229 µM | 5.18 µM | 0.128 µM | 0.4 µM
Nc1c2ccccc2nc2ccccc12 | 1.24 µM and 2.81 µM | 3.21 µM and 8.24 µM | 2.23 µM and 3.46 µM | 6.32 µM and 13.7 µM | 1.44 µM and 2.5 µM | 5.17 µM and 6.88 µM | 2.71 µM and 3.36 µM | 13.4 µM and 8.16 µM | 0.626 µM and 3.53 µM | 5.14 µM and 34.3 µM | 1.86 µM and 3.69 µM | 3.66 µM and 9.62 µM | 1.8 µM and 3.18 µM | 5.49 µM and 15.4 µM | 1.74 µM and 3.87 µM | 3.41 µM and 11.4 µM
Cc1cc(C)c(CNC(=O)c2cc(Cl)c3c(c2C)O[C@@](C)(C2CCC(N(C)C)CC2)O3)c(=O)[nH]1 (stereo partly specified) | 93 µM | > 100 µM | 58 µM | > 100 µM | > 100 µM | > 100 µM | > 100 µM | > 100 µM | > 100 µM | > 100 µM | 45.3 µM | > 100 µM | 75.6 µM | > 100 µM | > 100 µM | > 100 µM
Nc1nc(-c2ccccn2)c(-c2ccc3ncccc3n2)s1 | > 25 µM | > 25 µM | > 25 µM | > 25 µM | > 25 µM | > 25 µM | > 25 µM | > 25 µM | > 25 µM | > 25 µM | > 25 µM | > 25 µM | > 25 µM | > 25 µM | > 25 µM | > 25 µM
COc1cc2nc(NC3CCC3)nc(NC3CCN(C(C)C)CC3)c2cc1OC | 6 µM | 21.8 µM | 1.77 µM | 3.33 µM | 3.36 µM | 12.1 µM | 4.01 µM | 19.1 µM | 3.97 µM | 26.2 µM | 1.76 µM | 3.23 µM | 4.61 µM | 17.7 µM | 1.9 µM | 3.79 µM
Cc1ccc(CNc2ccc(Cl)cc2NCc2ccc(C)c(O)c2)cc1O | 10 µM | 22.1 µM | 6.7 µM | 13.1 µM | 8 µM | 15.9 µM | 8.32 µM | 16.2 µM | 8.66 µM | 18.4 µM | 6.2 µM | 14.7 µM | 7.33 µM | 14.8 µM | 6.82 µM | 14.5 µM
CC(=O)O[C@@H]1[C@H]2O[C@H]2[C@H]2O[C@@]2(COC(=O)c2ccccc2)[C@H]1OC(C)=O |  | > 100 µM |  | > 100 µM |  | > 100 µM |  | > 100 µM |  | > 100 µM |  | > 100 µM |  | > 100 µM |  | > 100 µM
O=c1[nH]c2c(ccc3cnccc32)c2c1CCC2 | 0.252 µM | 0.897 µM | 0.307 µM | 1.38 µM | 0.376 µM | > 28.9 µM | 0.461 µM | > 100 µM | 0.331 µM | > 100 µM | 0.312 µM | 0.951 µM | 0.394 µM | > 20.3 µM | 0.221 µM | 0.673 µM
